Test results as given in patent US6573286B1, “2-(2,6-disubstituted phenyl)-4-aryl-5-alkyl-1,3-oxazoline compounds” (Dow AgroSciences LLC, priority 2002, dated 2003).

How the values were obtained:
Format in all cases: in vivo
[1] = system: two-spotted spider mite (Tetranychus urticae); assay: Insecticidal test for two-spotted spider mite, ovicide method; details: Tetranychus urticae, foliar, 144 h, ovicide method on cotton leaf discs, 6 days, read-out: SM: activity against two-spotted spider mite (% Control rating)
Procedure: Insecticidal test for two-spotted spider mite (Tetranychus urticae) Ovicide Method: Ten adult female two-spotted spider mites were placed on eight 2.2 cm leaf discs of cotton leaf, allowed to oviposit over 24 hours, and thereafter removed. […] Discs were placed on an agar substrate and held at 24° C. and 90% RH for 6 days.

[2] = system: beet armyworm (Spodoptera exigua); assay: Insecticidal test for beet armyworm, treated lepidopteran diet; details: Spodoptera exigua, 120 h, 2nd instar larvae on treated diet, 5 days, read-out: BAW: activity against beet armyworm (% Control rating)
Procedure: (§1) Insecticidal test for tobacco budworm (Heliothis virescens), beet armyworm (Spodoptera exigua), and cabbage looper (Trichoplusia ni). To prepare test solution, the test compound was formulated at 400 ppm in 7.5 mL of 2 acetone:1 tap water. 250 μL of the test solution was pipetted upon the surface of 8 mL of lepidopteran diet (modified Shorey) contained in each of five one-ounce plastic cups (one cup=1 replication). […] After air-drying, the treated leaf discs were placed individually into one-ounce plastic cups. Each dried, treated cotton cotyledon disc was infested with a 2nd instar tobacco budworm larva, and each cabbage leaf disc was infested with a 2nd instar cabbage looper larva. Cups containing the treated substrates and larvae were capped and then held in a growth chamber at 25° C., 50-55% RH, and 14 hr light:10 hr dark for 5 days.

[3] = system: Sweetpotato Whitefly (Bemisia tabacia); assay: Insecticidal test for Sweetpotato Whitefly, sprayed cotton plants; details: Bemisia, 312 h, 200 ppm spray, large nymphs counted after 13 days, read-out: WF: activity against whitefly (% Control rating)
Procedure: Insecticidal test for Sweetpotato Whitefly (Bemisia tabacia) Four mg of each test compound were dissolved by adding 4 mL of a 90:10 acetone:ethanol solvent mixture to the vial containing the sample compound. This solution was added to 16 mL of water containing 0.05% Tween 20 surfactant to produce 20 mL of a 200 ppm spray solution. Five-week-old cotton plants reared in a greenhouse were stripped of all foliage except for the two uppermost true leaves that were greater than 5 cm in diameter. These plants were then placed into a laboratory colony of whiteflies for two days for oviposition by the colony females. All whiteflies were then removed from the test plants with pressurized air. The spray solution was then applied to the test plants with a hand-held syringe fitted with hollow cone nozzle. One mL spray solution was applied to each leaf top and bottom for a total of 4 mL per plant. Four replications of each test compound utilized a total of 16 mL spray solution. Plants were air dried and then placed in a holding chamber (28° C. and 60% RH) for 13 days. Compound efficacy was evaluated by counting, under an illuminated magnifying glass, the number of large nymphs (3rd-4th instar) per leaf. Percent control based on reduction of large nymphs of a test compound compared to solution-only (no test compound) sprayed plants is reported in Table 1-8.

[4] = system: cotton aphid (Aphis gossypii); assay: Insecticidal test for cotton aphid, sprayed squash cotyledons; details: 50 ppm spray, graded after 3 days
Procedure: Insecticidal test for cotton aphid (Aphis gossypii) To prepare spray solutions, 1 mg of each test compound was dissolved into 1 mL of a 90:10 acetone:ethanol solvent. This 1 mL of chemical solution was added to 19 mL of water containing 0.05% Tween 20 surfactant to produce a 50 ppm spray solution. Squash cotyledons were infested with cotton aphid (all life stages) 16-20 hours prior to application of spray solution. The solution was sprayed on both sides of each infested squash cotyledon (0.5 mL×2 each side) with a sweeping action until runoff. The plants were allowed to air dry and held for 3 days in a controlled room at 26° C. and 40% RH after which time the test was graded. Grading was by actual count using a dissecting microscope and comparison of test counts to the untreated check.

[5] = system: tobacco budworm (Heliothis virescens); assay: Insecticidal test for tobacco budworm, treated cotton cotyledon leaf disc; details: Heliothis virescens, foliar, 120 h, 2nd instar larvae on dipped cotton cotyledon discs, 5 days, read-out: TBW: activity against tobacco budworm (% Control rating)
Procedure: as §1

[6] = system: cabbage looper (Trichoplusia ni); assay: Insecticidal test for cabbage looper, treated cabbage leaf disc; details: Trichoplusia ni, foliar, 120 h, 2nd instar larvae on dipped cabbage leaf discs, 5 days, read-out: CL: activity against cabbage looper (% Control rating)
Procedure: as §1

C[C@@H]1OC(c2c(F)cccc2F)=N[C@@H]1c1ccc(I)cc1 (racemic) [Compound 1, (4R,5S)- and (4S,5R)-4-(4-iodophenyl)-2-(2,6-difluorophenyl)-5-methyl-4,5-dihydro-1,3-oxazole]
pest or weed control at 2.5 ppm [1]: 90 to 100% | pest or weed control at 400 ppm [2]: < 50% | pest or weed control at 200 ppm [3]: 60 to 69% | CA: activity against cotton aphid (% Control rating) [4]: A (90-100) | pest or weed control at 400 ppm [5]: < 50% | pest or weed control at 400 ppm [6]: 60 to 69%
